Measurements as given in patent US20210127673A1, “HERBICIDES” (SYNGENTA PARTICIPATIONS AG, priority 2016, published 2021).

Assays:
Type in all cases: in vivo
Set-up in all cases: key: 5=total damage to plant; 0=no damage to plant
[1] = tested on: Echinochloa crus-galli (ECHCG); test: Pre-emergence herbicidal activity, Echinochloa crus-galli; settings: 1000 g/ha, evaluated after 13 days, Test 1b
Method in brief: (§1)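 Seeds sown in standard soil in pots, grown one day in a glasshouse (24/16 °C day/night, 14 h light, 65% humidity), then sprayed pre-emergence with compound in acetone/water (50:50) containing 0.5% Tween 20. Plants were scored after 13 days on a 0–5 scale (5 = total damage, 0 = none).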

Lolium perenne (LOLPE) [2] = test: Pre-emergence herbicidal activity, Lolium perenne; settings: 1000 g/ha, evaluated after 13 days, Test 1b
Method in brief: as §1

Zea Mays (ZEAMX) [3] = test: Pre-emergence herbicidal activity, Zea Mays; settings: 1000 g/ha, evaluated after 13 days, Test 1b
Method: (§2) Seeds of a variety of test species were sown in standard soil in pots: Triticum aestivium (TRZAW), Avena fatua (AVEFA), Alopecurus myosuroides (ALOMY), Echinochloa crus-galli (ECHCG), Lolium perenne (LOLPE), Zea Mays (ZEAMX), Abutilon theophrasti (ABUTH), Amaranthus retroflexus (AMARE) and Setaria faberi (SETFA). After cultivation for one day (pre-emergence) under controlled conditions in a glasshouse (at 24/16° C., day/night; 14 hours light; 65% humidity), the plants were sprayed with an aqueous spray solution derived from the formulation of the technical active ingredient in acetone/water (50:50) solution containing 0.5% Tween 20 (polyoxyethelyene sorbitan monolaurate, CAS RN 9005-64-5). The test plants were then grown in a glasshouse under controlled conditions (at 24/16°, day/night; 14 hours light; 65% humidity) and watered twice daily. After 13 days, the test was evaluated (5=total damage to plant; 0=no damage to plant).

[4] = tested on: Abutilon theophrasti (ABUTH); test: Pre-emergence herbicidal activity, Abutilon theophrasti; settings: 1000 g/ha, evaluated after 13 days, Test 1b
Method: as §2

[5] = tested on: Amaranthus retroflexus (AMARE); test: Pre-emergence herbicidal activity, Amaranthus retroflexus; settings: 1000 g/ha, evaluated after 13 days, Test 1b
Method: as §2

Setaria faberi (SETFA) [6] = test: Pre-emergence herbicidal activity, Setaria faberi; settings: 1000 g/ha, evaluated after 13 days, Test 1b
Method in brief: as §1

[7] = tested on: Echinochloa crus-galli (ECHCG); test: Post-emergence herbicidal activity, Echinochloa crus-galli; settings: 1000 g/ha, evaluated after 13 days, Test 2b
Method in brief: (§3)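 Post-em, 8 d plants, pots; acetone:water 1:1 + 0.5% Tween 20 spray; 24/16 °C, 14 h photoperiod, 65% RH; 13 d readout, 0–5 phytotoxicity scale.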

Lolium perenne (LOLPE) [8] = test: Post-emergence herbicidal activity, Lolium perenne; settings: 1000 g/ha, evaluated after 13 days, Test 2b
Method in brief: as §3

Zea Mays (ZEAMX) [9] = test: Post-emergence herbicidal activity, Zea Mays; settings: 1000 g/ha, evaluated after 13 days, Test 2b
Method: (§4) Seeds of a variety of test species were sown in standard soil in pots: Triticum aestivium (TRZAW), Avena fatua (AVEFA), Alopecurus myosuroides (ALOMY), Echinochloa crus-galli (ECHCG), Lolium perenne (LOLPE), Zea Mays (ZEAMX), Abutilon theophrasti (ABUTH), Amaranthus retroflexus (AMARE) and Setaria faberi (SETFA). After 8 days cultivation (post-emergence) under controlled conditions in a glasshouse (at 24/16° C., day/night; 14 hours light; 65% humidity), the plants were sprayed with an aqueous spray solution derived from the formulation of the technical active ingredient in acetone/water (50:50) solution containing 0.5% Tween 20 (polyoxyethelyene sorbitan monolaurate, CAS RN 9005-64-5). The test plants were then grown in a glasshouse under controlled conditions (at 24/16° C., day/night; 14 hours light; 65% humidity) and watered twice daily. After 13 days, the test was evaluated (5=total damage to plant; 0=no damage to plant).

[10] = tested on: Abutilon theophrasti (ABUTH); test: Post-emergence herbicidal activity, Abutilon theophrasti; settings: 1000 g/ha, evaluated after 13 days, Test 2b
Method: as §4

[11] = tested on: Amaranthus retroflexus (AMARE); test: Post-emergence herbicidal activity, Amaranthus retroflexus; settings: 1000 g/ha, evaluated after 13 days, Test 2b
Method: as §4

Setaria faberi (SETFA) [12] = test: Post-emergence herbicidal activity, Setaria faberi; settings: 1000 g/ha, evaluated after 13 days, Test 2b
Method in brief: as §3

| SMILES | ECHCG damage score (0-5) [1] | LOLPE damage score (0-5) (Lolium perenne (LOLPE) [2]) | ZEAMX damage score (0-5) (Zea Mays (ZEAMX) [3]) | ABUTH damage score (0-5) [4] | AMARE damage score (0-5) [5] | SETFA damage score (0-5) (Setaria faberi (SETFA) [6]) | ECHCG damage score (0-5) [7] | LOLPE damage score (0-5) (Lolium perenne (LOLPE) [8]) | ZEAMX damage score (0-5) (Zea Mays (ZEAMX) [9]) | ABUTH damage score (0-5) [10] | AMARE damage score (0-5) [11] | SETFA damage score (0-5) (Setaria faberi (SETFA) [12]) |
| --- | --- | --- | --- | --- | --- | --- | --- | --- | --- | --- | --- | --- |
| CC(C)(C)OC(=O)Nc1ccc(-c2cncc(F)c2)nc1C(F)(F)F [Compound B30, tert-butyl N-[6-(5-fluoro-3-pyridyl)-2-(trifluoromethyl)-3-pyridyl]carbamate] | 3 | 1 | 5 | 0 | 2 | 4 | 5 | 4 | 5 | 0 | 0 | 5 |
| Cc1nc(-c2cccnc2)ccc1NC(=O)OC(C)(C)C [Compound B25] | 2 | 2 | 3 | 1 | 1 | 5 | 3 | 4 | 4 | 2 | 2 | 5 |
| CN(C(=O)OC(C)(C)C)c1ccc(-c2cncc(F)c2)nc1C(F)(F)F [Compound B29, tert-butyl N-[6-(5-fluoro-3-pyridyl)-2-(trifluoromethyl)-3-pyridyl]-N-methyl-carbamate] | 4 | 1 | 3 | 1 | 2 | 4 | 4 | 3 | 5 | 1 | 1 | 5 |
| CN(C(=O)OC(C)(C)C)c1ccc(-c2cncc(C(F)(F)F)c2)nc1C(F)(F)F [Compound B17] | 0 | 0 | 0 | 0 | 0 | 0 | 1 | 0 | 1 | 0 | 0 | 1 |
| CC(C)(C)OC(=O)Nc1ccc(-c2cncnc2)nc1C(F)(F)F [Compound B32, tert-butyl N-[6-pyrimidin-5-yl-2-(trifluoromethyl)-3-pyridyl]carbamate] | 3 | 1 | 5 | 0 | 0 | 5 | 4 | 2 | 5 | 0 | 0 | 5 |
